≈ marks a conversion by molar mass, not a printed value.
What was measured:
[1] = tested on: A2780 ovarian carcinoma cells; test: In Vitro Cell Proliferation Assay (A2780); type: cell-based; settings: Homo sapiens, 72 hours exposure, CellTiterGlo
Method: (§1) In Vitro Cell Proliferation Assay
(§2) To evaluate the antiproliferative activity of a compound of formula (I) the following human cell lines were used: A2780 ovarian and MCF-7 breast carcinoma; TT and MZ-CRC-1 medullary thyroid carcinoma, harboring a mutated RET-C634W and RET-M918T receptor respectively, LC-2/ad Non Small Cell Lung Carcinoma, expressing the CCDC6-RET fusion gene product. Exponentially growing cells were seeded and incubated at 37° C. in a humidified 5% C02 atmosphere using appropriate medium supplemented with 10% Fetal Bovine Serum. 24 hours following cell plating, scalar doses of the compounds dissolved in 0.1% DMSO were added to the medium and cells were exposed to drugs for either 72 hours (MCF-7 and A2780) or 144 hours (TT, MZ-CRC-1 and LC-2/ad), according to their different proliferation rate. At the end of treatment, cell proliferation was determined by an intracellular ATP monitoring system (CellTiterGlo—Promega), following manufacturer's instructions, and using an Envision instrument (PerkinElmer) as reader. Data obtained from compound versus vehicle treated cells were compared using Assay Explorer (Symyx Technologies Inc) software. IC50 values were calculated using sigmoidal interpolation curve fitting.

[2] = High-Throughput Solubility Assay; type: physicochemical; settings: kinetic from dmso stock; pH 7, aqueous potassium phosphate buffer, nominal 200 μM, 24 h at room temperature
Method: High-Throughput Solubility Assay
A nominal 200 μM suspensions/solutions of a compound of formula (I) in aqueous potassium phosphate buffer at pH=7 and aqueous citric acid buffer at pH=3 were prepared on a “Multiscreen-HTS”, 0.2 μm filter plate (Millipore, Billerica, Mass.). These solutions were stirred for 10 min and stored for 24 h at room temperature to pre-saturate the membrane filter and to reach a “pseudo-thermodynamic solubility”. Then the plate was put on a 500 μL 96 multiwell plate containing 200 μL of acetonitrile in each well and centrifuged at 2000 rpm for 5 minutes. The so obtained solutions were then analyzed simultaneously by HPLC-UV with standard solutions for quantification.

[3] = tested on: MZ-CRC-1 medullary thyroid carcinoma cells, harboring a mutated RET-M918T receptor; test: In Vitro Cell Proliferation Assay (MZ-CRC-1); type: cell-based; settings: Homo sapiens, 144 hours exposure, CellTiterGlo
Method: as §1, §2

[4] = tested on: TT medullary thyroid carcinoma cells, harboring a mutated RET-C634W receptor; test: In Vitro Cell Proliferation Assay (TT); type: cell-based; settings: Homo sapiens; 144 hours exposure, CellTiterGlo
Method: as §1, §2

[5] = tested on: MCF-7 breast carcinoma cells; test: In Vitro Cell Proliferation Assay (MCF-7); type: cell-based; settings: Homo sapiens, MCF7; 72 hours exposure, CellTiterGlo
Method: as §1, §2

[6] = tested on: LC-2/ad Non Small Cell Lung Carcinoma cells, expressing the CCDC6-RET fusion gene product; test: In Vitro Cell Proliferation Assay (LC-2/ad); type: cell-based; settings: Homo sapiens, 144 hours exposure, CellTiterGlo
Method: as §1, §2

Row | IC50 [1] [nM] | solubility at 24 h [2] [µM] | IC50 [3] [µM] | IC50 [4] [µM] | IC50 [5] [nM] | IC50 [6] [µM] | SMILES
1 | 1760 | 6.5 (≈ 4.37 µg/mL) | 0.074 | 0.002 | 4780 | 0.038 | CCN1CCN(Cc2ccc(NC(=O)Nc3cccc(C#Cc4cnc(N)nc4-c4cc5c(n4C)CCNC5=O)c3)cc2C(F)(F)F)CC1 [Cmpd 8, 1-{3-[2-Amino-4-(1-methyl-4-oxo-4,5,6,7-tetrahydro-1H-pyrrolo[3,2-c]pyridin-2-yl)-pyrimidin-5-ylethynyl]-phenyl}-3-[4-(4-ethyl-piperazin-1-ylmethyl)-3-trifluoromethyl-phenyl]-urea]
2 | 85 | 26.9 (≈ 17.7 µg/mL) | 0.004 | 0.0005 | 1840 | 0.004 | CCN1CCN(Cc2ccc(NC(=O)c3cccc(C#Cc4cnc(N)nc4-c4cc5c(n4C)CCNC5=O)c3)cc2C(F)(F)F)CC1 [Cmpd 48, 3-[2-Amino-4-(1-methyl-4-oxo-4,5,6,7-tetrahydro-1H-pyrrolo[3,2-c]pyridin-2-yl)-pyrimidin-5-ylethynyl]-N-[4-(4-ethyl-piperazin-1-ylmethyl)-3-trifluoromethyl-phenyl]-benzamide]
3 | 2820 | 23 (≈ 15.4 µg/mL) | 0.023 | 0.002 | 6650 | 0.003 | CCN1CCN(Cc2ccc(NC(=O)Cc3cccc(C#Cc4cnc(N)nc4-c4cc5c(n4C)CCNC5=O)c3)cc2C(F)(F)F)CC1 [Cmpd 77, 2-{3-[2-Amino-4-(1-methyl-4-oxo-4,5,6,7-tetrahydro-1H-pyrrolo[3,2-c]pyridin-2-yl)-pyrimidin-5-ylethynyl]-phenyl}-N-[4-(4-ethyl-piperazin-1-ylmethyl)-3-trifluoromethyl-phenyl]-acetamide]
4 | 2220 | 1.4 (≈ 0.959 µg/mL) | 0.026 | 0.007 | 2310 | 0.014 | CCN1CCN(Cc2ccc(NC(=O)Cc3cccc(C#Cc4cnc(NC)nc4-c4cc5c(n4C)CCNC5=O)c3)cc2C(F)(F)F)CC1 [Cmpd 78, N-[4-(4-Ethyl-piperazin-1-ylmethyl)-3-trifluoromethyl-phenyl]-2-{3-[2-methylamino-4-(1-methyl-4-oxo-4,5,6,7-tetrahydro-1H-pyrrolo[3,2-c]pyridin-2-yl)-pyrimidin-5-ylethynyl]-phenyl}-acetamide]
5 | 1150 | 3.5 (≈ 2.35 µg/mL) | 0.015 | 0.005 |  | 0.01 | CNc1ncc(C#Cc2cccc(CC(=O)Nc3ccc(CN4CCN(C)CC4)c(C(F)(F)F)c3)c2)c(-c2cc3c(n2C)CCNC3=O)n1 [Cmpd 174, 2-{3-[2-Methylamino-4-(1-methyl-4-oxo-4,5,6,7-tetrahydro-1H-pyrrolo[3,2-c]pyridin-2-yl)-pyrimidin-5-ylethynyl]-phenyl}-N-[4-(4-methyl-piperazin-1-ylmethyl)-3-trifluoromethyl-phenyl]-acetamide]
6 | 3830 | 7.6 (≈ 5.31 µg/mL) | 0.023 | 0.014 |  | 0.02 | CNc1ncc(C#Cc2cccc(CC(=O)Nc3ccc(CN4CCN(C(C)C)CC4)c(C(F)(F)F)c3)c2)c(-c2cc3c(n2C)CCNC3=O)n1 [Cmpd 176, N-[4-(4-Isopropyl-piperazin-1-ylmethyl)-3-trifluoromethyl-phenyl]-2-{3-[2-methylamino-4-(1-methyl-4-oxo-4,5,6,7-tetrahydro-1H-pyrrolo[3,2-c]pyridin-2-yl)-pyrimidin-5-ylethynyl]-phenyl}-acetamide]
7 | 2310 | 2.9 (≈ 2 µg/mL) | 0.039 | 0.008 |  | 0.051 | CNc1ncc(C#Cc2cc(CC(=O)Nc3ccc(CN4CCN(C)CC4)c(C(F)(F)F)c3)ccc2F)c(-c2cc3c(n2C)CCNC3=O)n1 [Cmpd 190, 2-{4-Fluoro-3-[2-methylamino-4-(1-methyl-4-oxo-4,5,6,7-tetrahydro-1H-pyrrolo[3,2-c]pyridin-2-yl)-pyrimidin-5-ylethynyl]-phenyl}-N-[4-(4-methyl-piperazin-1-ylmethyl)-3-trifluoromethyl-phenyl]-acetamide]
8 | 910 | < 1 | 0.039 | 0.016 |  | 0.015 | CCNc1ncc(C#Cc2cccc(CC(=O)Nc3ccc(CN4CCN(C)CC4)c(C(F)(F)F)c3)c2)c(-c2cc3c(n2C)CCNC3=O)n1 [Cmpd 193, 2-{3-[2-Ethylamino-4-(1-methyl-4-oxo-4,5,6,7-tetrahydro-1H-pyrrolo[3,2-c]pyridin-2-yl)-pyrimidin-5-ylethynyl]-phenyl}-N-[4-(4-methyl-piperazin-1-ylmethyl)-3-trifluoromethyl-phenyl]-acetamide]
